Reference: PubChem BioAssay (NCI)
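Briefly, cells in 96-well plates were exposed to five compound concentrations for 48 h, and endpoints were estimated by linear interpolation. At the GI50, growth is halved. At the TGI there is no net growth.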

What was measured:
Experiment in all cases: NCI anticancer screen, dose series, 48 h
[1] = tested on: KM12 colon
[2] = tested on: SK-MEL-28 melanoma
[3] = tested on: RPMI-8226 leukemia
[4] = tested on: T-47D breast
[5] = tested on: HT29 colon
[6] = tested on: OVCAR-4 ovarian
[7] = tested on: SK-MEL-2 melanoma
[8] = tested on: SF-295 CNS
[9] = tested on: MOLT-4 leukemia
[10] = tested on: SK-OV-3 ovarian
[11] = tested on: SR leukemia
[12] = tested on: IGROV1 ovarian
[13] = tested on: NCI-H23 lung
[14] = tested on: HS 578T breast
[15] = tested on: BT-549 breast
[16] = tested on: HCC-2998 colon
[17] = tested on: U251 CNS
[18] = tested on: NCI-H460 lung
[19] = tested on: SF-268 CNS
[20] = tested on: PC-3 prostate
[21] = tested on: SF-539 CNS
[22] = tested on: HOP-62 NSCLC
[23] = tested on: DU-145 prostate
[24] = tested on: SN12C renal
[25] = tested on: 786-0 renal
[26] = tested on: UO-31 renal
[27] = tested on: HCT-15 colon
[28] = tested on: HCT-116 colon
[29] = tested on: COLO 205 colon
[30] = tested on: RXF 393 renal
[31] = tested on: NCI-H522 lung
[32] = tested on: A549 NSCLC
[33] = tested on: MALME-3M melanoma
[34] = tested on: UACC-257 melanoma
[35] = tested on: OVCAR-8 ovarian
[36] = tested on: A498 renal
[37] = tested on: CCRF-CEM leukemia
[38] = tested on: UACC-62 melanoma
[39] = tested on: OVCAR-5 ovarian
[40] = tested on: TK-10 renal
[41] = tested on: M14 melanoma
[42] = tested on: ACHN renal
[43] = tested on: SW-620 colon
[44] = tested on: EKVX NSCLC
[45] = tested on: SNB-19 CNS
[46] = tested on: MCF7 breast
[47] = tested on: MDA-MB-435
[48] = tested on: SK-MEL-5 melanoma
[49] = tested on: OVCAR-3 ovarian
[50] = tested on: CAKI-1 renal
[51] = tested on: HOP-92 NSCLC
[52] = tested on: K-562 leukemia
[53] = tested on: LOX IMVI melanoma
[54] = tested on: SNB-75 CNS
[55] = tested on: NCI-H226 lung
[56] = tested on: MDA-MB-231 breast
[57] = tested on: NCI/ADR-RES ovarian

Compound: C#Cc1c(I)n(C2OC(CO[Si](C)(C)C(C)(C)C)C3OC(C)(C)OC32)c(=O)[nH]c1=O (centres undefined)
- GI50 [1]: 16.9 µM
- TGI [1]: 35.6 µM
- GI50 [2]: 2 µM
- TGI [2]: 4.43 µM
- GI50 [3]: 3.63 µM
- TGI [3]: 13.7 µM
- GI50 [4]: 5.42 µM
- TGI [4]: 28 µM
- GI50 [5]: 19.2 µM
- TGI [5]: 52.2 µM
- GI50 [6]: 17.8 µM
- TGI [6]: 37.6 µM
- GI50 [7]: 5.35 µM
- TGI [7]: 26.1 µM
- GI50 [8]: 28.4 µM
- TGI [8]: 98.7 µM
- GI50 [9]: 2.17 µM
- TGI [9]: 6.69 µM
- GI50 [10]: 33.2 µM
- TGI [10]: > 100 µM
- GI50 [11]: 2.62 µM
- TGI [11]: 12.8 µM
- GI50 [12]: 4.46 µM
- TGI [12]: 19.1 µM
- GI50 [13]: 18.9 µM
- TGI [13]: 39.6 µM
- GI50 [14]: 19.7 µM
- TGI [14]: 66.8 µM
- GI50 [15]: 16.4 µM
- TGI [15]: 31.2 µM
- GI50 [16]: 2.36 µM
- TGI [16]: 6.38 µM
- GI50 [17]: 19.5 µM
- TGI [17]: 65.8 µM
- GI50 [18]: 20 µM
- TGI [18]: 40.4 µM
- GI50 [19]: 12.3 µM
- TGI [19]: 27.8 µM
- GI50 [20]: 1.72 µM
- TGI [20]: 4.27 µM
- GI50 [21]: 16.6 µM
- TGI [21]: 31.4 µM
- GI50 [22]: 20 µM
- TGI [22]: 38.4 µM
- GI50 [23]: 4.57 µM
- TGI [23]: 19.4 µM
- GI50 [24]: 18.5 µM
- TGI [24]: 37.6 µM
- GI50 [25]: 14.7 µM
- TGI [25]: 29.4 µM
- GI50 [26]: 1.99 µM
- TGI [26]: 5.49 µM
- GI50 [27]: 4.09 µM
- TGI [27]: > 100 µM
- GI50 [28]: 2.78 µM
- TGI [28]: 10.1 µM
- GI50 [29]: 2.24 µM
- TGI [29]: 4.8 µM
- GI50 [30]: 3.68 µM
- TGI [30]: 14.2 µM
- GI50 [31]: 1.72 µM
- TGI [31]: 3.52 µM
- GI50 [32]: 49.6 µM
- TGI [32]: > 100 µM
- GI50 [33]: 2.41 µM
- TGI [33]: 6.59 µM
- GI50 [34]: 15.2 µM
- TGI [34]: 29.8 µM
- GI50 [35]: 12.1 µM
- TGI [35]: 27.8 µM
- GI50 [36]: 17.1 µM
- TGI [36]: 35.7 µM
- GI50 [37]: 4 µM
- TGI [37]: 11.9 µM
- GI50 [38]: 17.9 µM
- TGI [38]: 33.7 µM
- GI50 [39]: 20.4 µM
- TGI [39]: 37 µM
- GI50 [40]: 11.2 µM
- TGI [40]: 26.5 µM
- GI50 [41]: 16.3 µM
- TGI [41]: 33.3 µM
- GI50 [42]: 17.8 µM
- TGI [42]: 39.7 µM
- GI50 [43]: 2.36 µM
- TGI [43]: 6.42 µM
- GI50 [44]: 20.6 µM
- TGI [44]: 52.3 µM
- GI50 [45]: 24.1 µM
- TGI [45]: 78.8 µM
- GI50 [46]: 16.6 µM
- TGI [46]: 50 µM
- GI50 [47]: 15 µM
- TGI [47]: 31 µM
- GI50 [48]: 13.1 µM
- TGI [48]: 27.1 µM
- GI50 [49]: 1.65 µM
- TGI [49]: 3.56 µM
- GI50 [50]: 11.6 µM
- TGI [50]: 24.8 µM
- GI50 [51]: 12.4 µM
- TGI [51]: 26.1 µM
- GI50 [52]: 2.08 µM
- TGI [52]: 5.37 µM
- GI50 [53]: 3.42 µM
- TGI [53]: 18.5 µM
- GI50 [54]: 14.4 µM
- TGI [54]: 29.4 µM
- GI50 [55]: 17.7 µM
- TGI [55]: 32.5 µM
- GI50 [56]: 5.24 µM
- TGI [56]: 19.9 µM
- GI50 [57]: 23.5 µM
- TGI [57]: 59.1 µM
